What was measured:
[1] = tested on: BT474 xenograft; experiment: Tumour growth inhibition, BT474 xenograft model; assay type: in vivo, mouse
Description: BT474 is an estrogen receptor positive breast tumour cell lines with elevated Her2 expression and carries a mutation in the PIK3CA gene (K111N). Female Swiss athymic nude mice (swiss nu/nu-AZUK) were transplanted subcutaneously with human epithelial breast ductal carcinoma cell line BT474c (derived in AZ from BT474-ATCC HTB-20) tumours passaged in mice. Mice were implanted with 0.36 mg 60 day oestrogen pellet (Innovative Research of America) 24 hours prior to cell implantation. 5×10^6 cells in 50% matrigel (BD Bioscience) were injected s.c. on the left flank of the animals.
(§1) Animals were randomised into groups of 10-15 when tumours reached a volume of ˜200-300 mm^3 and treatment commenced. Animals were dosed for 3-4 weeks by peroral route, with compound in a suitable vehicle at defined doses and schedules. Tumours were measured two-three times weekly by caliper and volume of tumours calculated using elliptical formula (pi/6×width×width×length).

[2] = tested on: MCF7 xenograft; experiment: Tumour growth inhibition, MCF7 xenograft model; assay type: in vivo, mouse; details: olaparib alone 100 mg/kg QD every day; FIG. 12
Description: MCF7 is an estrogen receptor positive breast tumour cell line carrying a mutation in the PIKC3CA gene (E545K). […] SCID mice (AZ UK) were transplanted subcutaneously (s.c.) with human breast adenocarcinoma cell line MCF7 (ICRF London) to determine anti-tumour activity of PI3 kinase inhibitors. Mice were implanted with a 0.5 mg 21 day oestrogen pellet (Innovative Research of America) 24 hours prior to cell implantation. 5×10^6 cells in 50% matrigel (BD Bioscience) were injected s.c. on the left flank of the animals.
as §1

[3] = target: PI3K-β (Homo sapiens (Human), UniProt P42338); experiment: In vitro enzyme inhibition assay (Kinase Glo); assay type: biochemical; details: Test protocol a; mean of replicates
Description: (§2) The inhibition of PI3K-β, PI3K-α, PI3K-γ and PI3K-δ was evaluated in a Kinase Glo based enzyme activity assay using human recombinant enzymes. The assay platform indirectly measured the depletion of ATP after incubation with enzyme, PIP2 substrate, ATP and compound.
(§3) After completion of the enzyme reaction the remaining ATP was used in a secondary enzymatic reaction, where Luciferase converted beetle luciferin into oxyluciferin under the emission of light. A direct relationship existed between the luminescence measured and the ATP remaining in a completed kinase reaction. Therefore, the luminescence was inversely related to the kinase activity.
(§4) Compounds in 100% DMSO were added to assay plates by acoustic dispensing. PI3K enzyme was added in a Tris buffer (50 mM Tris pH7.4, 0.05% CHAPS, 2.1 mM DTT, and 10 mM magnesium chloride) and allowed to preincubate with compound for 20 minutes prior to addition of substrate solution containing PIP2 and ATP. The enzyme reaction was stopped after 80 minutes by the addition of Kinase Glo detection solution containing Lucferin and Luciferase (from Kinase Glo® Plus Luminecent Kinase Assay kit (Promega #V3772). Plates were left for 30 minutes at room temperature then read on a Pherastar Instrument with a standard Luminescence filter block. The final concentration of DMSO, ATP and PIP2 in the assay were, 1%, 8 μM, and 80 μM respectively.
(§5) IC50 values were calculated using a log curve fitting to a non-linear regression fit.

[4] = target: PI3K-δ (Homo sapiens (Human), UniProt O00329); experiment: In vitro enzyme inhibition assay (Kinase Glo); assay type: biochemical; details: Test protocol a; mean of replicates
Description: as §2, §3, §4, §5

[5] = target: ATR kinase (Homo sapiens (Human), UniProt Q13535); experiment: Phospho Chk1 (Ser345) in HT29 cells (ATR cell assay); assay type: cell-based; details: Test protocol f, one test replicate only
Description: ATR (Ataxia Telangiectasia+Rad3-related kinase) is a PI3-kinase-related kinase which phosphorylates multiple substrates on serine or threonine residues in response to DNA damage or replication blocks. Chk1, a downstream protein kinase of ATR, plays a key role in DNA damage checkpoint control. Activation of Chk1 involves phosphorylation of Ser317 and Ser345 (the latter regarded as the preferential target for phosphorylation/activation by ATR).
This was a cell based assay to measure inhibition of ATR kinase, by measuring a decrease in phosphorylation of Chk1 (Ser 345) in HT29 cells, following treatment with compound and the UV mimetic 4NQO (Sigma #N8141). HT29 cells (ECACC #85061109) were seeded into 384 well assay plates (Costar #3712) at a density of 6000 cells/well in 40 μl EMEM medium containing 1% L glutamine and 10% FBS and allowed to adhere overnight. The following morning compounds in 100% DMSO were added to assay plates by acoustic dispensing. After 1 hour incubation at 37° C. and 5% CO2, 40 nl of 3 mM 4NQO in 100% DMSO was added to all wells by acoustic dispensing, except minimum control wells which were left untreated with 4NQO to generate a null response control. Plates were returned to the incubator for a further 1 hour. Then cells were fixed by adding 20 μl of 3.7% formaldehyde in PBS solution and incubating for 20 mins at room temperature. Then 20 μl of 0.1% Triton X100 in PBS was added and incubated for 10 minutes at room temperature, to permeabalise cells. Then the plates were washed once with 50 μl/well PBS, using a Biotek EL405 plate washer.
Phospho-Chk1 Ser 345 antibody (Cell Signalling Technology #2348) was diluted 150 fold in PBS containing 0.05% polysorbate/Tween and 15 μl was added to each well and incubated over night at room temperature. The next morning plates were washed three times with 50 μl/well PBS, using a Biotek EL405 plate washer, and then 20 μl of secondary Ab solution, containing 500 fold diluted Alexa Fluor 488 Goat anti-rabbit IgG (Molecular Probes #A-11008) and 0.002 mg/ml Hoeschst dye (Molecular Probes #H-3570), in PBST, was added. After 2 hours incubation at room temperature, the plates were washed three times with 50 μl/well PBS, using a Biotek EL405 plate washer, and plates were then sealed with black plate seals until read. Plates were read using an ArrayScan VTI instrument, using an XF53 filter with 10× objective. A two laser set up was used to analyse nuclear staining with Hoeschst (405 nM) and secondary antibody staining of pChk1 (488 nM).

[6] = target: PI3K-α (Homo sapiens (Human), UniProt P42336, K111N); experiment: Phosphorylated AKT (Thr308) in BT474 cells (PI3K-α cell assay); assay type: cell-based; details: Test protocol c, mean of replicates
[7] = target: PI3K-α (Homo sapiens (Human), UniProt P42336); experiment: In vitro enzyme inhibition assay (Kinase Glo); assay type: biochemical; details: Test protocol a; mean of replicates
Description: as §2, §3, §4, §5

[8] = tested on: HCC70 xenograft; experiment: Tumour growth inhibition, HCC70 xenograft model; assay type: in vivo, mouse; details: AZD8186 alone 50 mg/kg BID every day; FIG. 13
Description: HCC70 is breast tumour cell line which is deficient in PTEN gene expression. Female Swiss athymic nude mice (swiss nu/nu—AZUK) were transplanted subcutaneously with the breast ductal epithelial tumour cell line HCC70 (ATCC—CRL2315) cells. 1×10^6 cells in 50% matrigel (BD Bioscience) were injected s.c. on the left flank of the animals.
as §1

Chain of PI3K-β (P42338 whole entry): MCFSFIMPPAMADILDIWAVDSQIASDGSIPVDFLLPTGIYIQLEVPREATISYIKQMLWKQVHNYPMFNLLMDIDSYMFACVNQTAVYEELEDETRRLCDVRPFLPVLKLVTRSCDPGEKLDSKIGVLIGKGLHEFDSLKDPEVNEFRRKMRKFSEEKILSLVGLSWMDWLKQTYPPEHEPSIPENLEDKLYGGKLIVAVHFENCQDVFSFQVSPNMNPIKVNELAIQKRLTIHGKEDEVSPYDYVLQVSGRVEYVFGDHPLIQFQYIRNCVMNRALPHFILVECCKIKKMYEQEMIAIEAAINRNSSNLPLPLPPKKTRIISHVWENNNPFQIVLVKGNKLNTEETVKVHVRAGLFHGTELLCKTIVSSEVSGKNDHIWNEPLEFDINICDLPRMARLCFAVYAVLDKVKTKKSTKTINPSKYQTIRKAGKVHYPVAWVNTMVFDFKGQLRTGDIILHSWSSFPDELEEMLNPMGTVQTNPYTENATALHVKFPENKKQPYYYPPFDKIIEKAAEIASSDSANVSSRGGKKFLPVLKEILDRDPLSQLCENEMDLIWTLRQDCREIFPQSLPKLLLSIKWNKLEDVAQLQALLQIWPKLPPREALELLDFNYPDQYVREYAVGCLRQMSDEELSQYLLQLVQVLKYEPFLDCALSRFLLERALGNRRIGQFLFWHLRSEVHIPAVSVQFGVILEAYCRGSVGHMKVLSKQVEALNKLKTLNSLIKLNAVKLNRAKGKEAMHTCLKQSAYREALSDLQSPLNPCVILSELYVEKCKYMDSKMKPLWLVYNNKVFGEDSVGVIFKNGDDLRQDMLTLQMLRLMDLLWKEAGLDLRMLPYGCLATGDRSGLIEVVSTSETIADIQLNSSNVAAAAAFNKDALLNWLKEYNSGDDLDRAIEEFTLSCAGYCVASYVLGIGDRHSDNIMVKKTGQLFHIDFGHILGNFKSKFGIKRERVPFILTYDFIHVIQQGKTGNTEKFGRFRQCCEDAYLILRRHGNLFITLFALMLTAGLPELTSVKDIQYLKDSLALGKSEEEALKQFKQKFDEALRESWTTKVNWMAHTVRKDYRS
Chain of PI3K-β (P27986 whole entry partner): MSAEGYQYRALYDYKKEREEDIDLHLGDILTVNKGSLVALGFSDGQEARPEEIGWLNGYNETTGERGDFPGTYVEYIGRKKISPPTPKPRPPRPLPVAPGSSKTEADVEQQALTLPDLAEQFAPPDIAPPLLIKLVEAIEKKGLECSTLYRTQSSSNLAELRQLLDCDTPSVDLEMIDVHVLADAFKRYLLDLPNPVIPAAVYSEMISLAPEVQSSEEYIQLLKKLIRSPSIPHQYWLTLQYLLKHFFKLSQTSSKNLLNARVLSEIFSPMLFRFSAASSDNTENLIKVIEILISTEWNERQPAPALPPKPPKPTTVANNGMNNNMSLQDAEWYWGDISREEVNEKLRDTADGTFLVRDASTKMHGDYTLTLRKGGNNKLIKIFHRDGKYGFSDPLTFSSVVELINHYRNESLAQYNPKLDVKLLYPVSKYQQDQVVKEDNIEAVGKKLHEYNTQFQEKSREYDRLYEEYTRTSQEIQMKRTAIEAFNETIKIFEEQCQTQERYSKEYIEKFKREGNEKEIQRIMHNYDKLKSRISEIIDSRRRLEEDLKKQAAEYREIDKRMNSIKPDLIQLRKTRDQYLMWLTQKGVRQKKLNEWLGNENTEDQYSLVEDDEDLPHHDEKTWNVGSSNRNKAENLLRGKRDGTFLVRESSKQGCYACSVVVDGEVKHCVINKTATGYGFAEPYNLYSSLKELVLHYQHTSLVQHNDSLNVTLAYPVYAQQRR
Chain of PI3K-α (Homo sapiens (Human), UniProt P42336, K111N) (P42336 whole entry K111N, looked up): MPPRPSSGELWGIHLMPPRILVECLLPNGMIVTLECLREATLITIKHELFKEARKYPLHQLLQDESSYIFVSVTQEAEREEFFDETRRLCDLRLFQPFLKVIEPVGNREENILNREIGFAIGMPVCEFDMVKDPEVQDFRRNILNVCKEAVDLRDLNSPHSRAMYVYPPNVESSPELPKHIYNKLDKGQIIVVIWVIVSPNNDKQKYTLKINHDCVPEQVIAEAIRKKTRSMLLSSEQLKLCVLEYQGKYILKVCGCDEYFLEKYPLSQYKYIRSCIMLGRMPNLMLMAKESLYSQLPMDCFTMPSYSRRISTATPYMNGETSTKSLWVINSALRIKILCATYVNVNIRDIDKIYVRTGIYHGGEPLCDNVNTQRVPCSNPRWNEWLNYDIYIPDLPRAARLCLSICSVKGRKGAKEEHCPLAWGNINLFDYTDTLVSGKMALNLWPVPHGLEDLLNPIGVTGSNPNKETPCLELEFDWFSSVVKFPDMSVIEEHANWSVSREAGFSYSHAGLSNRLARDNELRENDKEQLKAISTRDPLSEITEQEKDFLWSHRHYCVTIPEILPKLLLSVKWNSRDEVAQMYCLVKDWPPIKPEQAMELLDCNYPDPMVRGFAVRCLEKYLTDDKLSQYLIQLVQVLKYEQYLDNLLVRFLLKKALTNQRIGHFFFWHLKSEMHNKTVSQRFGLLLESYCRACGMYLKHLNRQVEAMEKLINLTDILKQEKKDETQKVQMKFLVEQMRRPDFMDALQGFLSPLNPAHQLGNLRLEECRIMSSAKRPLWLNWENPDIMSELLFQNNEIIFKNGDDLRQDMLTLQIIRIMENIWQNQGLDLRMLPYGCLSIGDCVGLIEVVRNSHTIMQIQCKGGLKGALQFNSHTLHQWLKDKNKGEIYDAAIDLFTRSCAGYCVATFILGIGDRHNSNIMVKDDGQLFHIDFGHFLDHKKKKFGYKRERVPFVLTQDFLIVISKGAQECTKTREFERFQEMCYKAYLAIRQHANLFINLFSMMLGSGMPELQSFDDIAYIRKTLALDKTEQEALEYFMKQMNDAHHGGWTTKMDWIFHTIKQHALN
Chain of PI3K-α (Homo sapiens (Human), UniProt P42336, K111N) (P27986 whole entry partner, looked up): as the sequence (P27986 whole entry partner) above
Chain of PI3K-δ (O00329 whole entry): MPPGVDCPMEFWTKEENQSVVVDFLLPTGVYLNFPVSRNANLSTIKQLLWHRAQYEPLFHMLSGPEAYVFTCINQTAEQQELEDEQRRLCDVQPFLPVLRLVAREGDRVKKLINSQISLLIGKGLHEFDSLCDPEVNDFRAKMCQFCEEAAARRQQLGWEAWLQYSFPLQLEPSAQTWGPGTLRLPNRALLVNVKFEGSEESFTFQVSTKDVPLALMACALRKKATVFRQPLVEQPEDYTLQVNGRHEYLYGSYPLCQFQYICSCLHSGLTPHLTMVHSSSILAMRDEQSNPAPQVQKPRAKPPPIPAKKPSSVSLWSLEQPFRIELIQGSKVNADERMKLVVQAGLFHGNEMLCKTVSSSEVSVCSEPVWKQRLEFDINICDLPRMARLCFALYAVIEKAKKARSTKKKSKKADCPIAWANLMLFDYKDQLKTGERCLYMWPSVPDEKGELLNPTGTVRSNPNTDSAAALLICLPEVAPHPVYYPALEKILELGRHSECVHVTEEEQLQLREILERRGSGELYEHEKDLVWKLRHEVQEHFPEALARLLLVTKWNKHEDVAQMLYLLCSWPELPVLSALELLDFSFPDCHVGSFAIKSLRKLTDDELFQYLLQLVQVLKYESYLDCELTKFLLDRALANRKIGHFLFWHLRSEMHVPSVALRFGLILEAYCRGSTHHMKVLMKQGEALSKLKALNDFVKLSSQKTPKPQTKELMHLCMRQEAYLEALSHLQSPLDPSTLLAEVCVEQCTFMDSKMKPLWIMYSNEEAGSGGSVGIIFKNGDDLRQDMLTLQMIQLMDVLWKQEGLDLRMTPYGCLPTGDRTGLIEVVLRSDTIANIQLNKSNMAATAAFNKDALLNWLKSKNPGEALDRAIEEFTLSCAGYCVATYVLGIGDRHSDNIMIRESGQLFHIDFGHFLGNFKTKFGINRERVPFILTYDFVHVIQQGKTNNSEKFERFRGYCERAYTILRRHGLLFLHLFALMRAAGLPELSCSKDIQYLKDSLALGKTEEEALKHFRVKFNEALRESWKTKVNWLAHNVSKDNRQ
Chain of PI3K-δ (P27986 whole entry partner): as the sequence (P27986 whole entry partner) above
Chain of PI3K-α (Homo sapiens (Human), UniProt P42336) (P42336 whole entry, looked up): as the sequence (P42336 whole entry K111N, looked up) above, with N111K counted along it
Chain of PI3K-α (Homo sapiens (Human), UniProt P42336) (P27986 whole entry partner, looked up): as the sequence (P27986 whole entry partner) above

| SMILES | IC50 [3] [nM] | IC50 [4] [nM] | IC50 [5] [nM] | IC50 [6] [nM] | also measured |
| --- | --- | --- | --- | --- | --- |
| O=C(c1cc(Cc2n[nH]c(=O)c3ccccc23)ccc1F)N1CCN(C(=O)C2CC2)CC1 [olaparib, 4-[3-(4-cyclopropanecarbonyl-piperazine-1-carbonyl)-4-fluoro-benzyl]-2H-phthalazin-1-one, reference compound] |  |  |  |  | tumour growth ([1]; olaparib alone 100 mg/kg QD every day, FIG. 11): no significant effect on tumour growth; tumour growth [2]: minimal effect on tumour growth |
| C[C@@H](O)CC(=O)N1CCC(c2nc(-c3cnc(N)c(-c4nnc(C(C)(C)C)o4)n3)n(C)n2)CC1 [Example 4, (3R)-1-[4-[5-[5-amino-6-(5-tert-butyl-1,3,4-oxadiazol-2-yl)pyrazin-2-yl]-1-methyl-1,2,4-triazol-3-yl]-1-piperidyl]-3-hydroxy-butan-1-one] | 2910 | < 12 | > 30000 |  |  |
| NC1(C(=O)N[C@@H](CCO)c2ccc(Cl)cc2)CCN(c2ncnc3[nH]ccc23)CC1 [AZD5363, (S)-4-amino-N-(1-(4-chlorophenyl)-3-hydroxypropyl)-1-(7H-pyrrolo[2,3-d]pyrimidin-4-yl)piperidine-4-carboxamide, reference compound] |  |  |  |  | tumour growth ([1]; AZD5363 alone 100 mg/kg BID, 2 days on/5 days off, vs vehicle, FIG. 10): partially inhibited tumour growth; tumour growth ([1]; AZD5363 alone 170 mg/kg BID, 2 days on/5 days off, vs vehicle, FIG. 9): partially inhibited tumour growth |
| C[C@H](CO)C(=O)N1CCC(c2nc(-c3cnc(N)c(-c4nnc(C(C)(C)C)o4)n3)n(C)n2)CC1 [Example 6, (2R)-1-[4-[5-[5-amino-6-(5-tert-butyl-1,3,4-oxadiazol-2-yl)pyrazin-2-yl]-1-methyl-1,2,4-triazol-3-yl]-1-piperidyl]-3-hydroxy-2-methyl-propan-1-one] | 3420 | < 12 | > 30000 |  |  |
| Cn1nc(C2CCN(C(=O)C(C)(C)O)CC2)nc1-c1cnc(N)c(-c2nnc(C(C)(C)C)o2)n1 [Example 7, 1-[4-[5-[5-amino-6-(5-tert-butyl-1,3,4-oxadiazol-2-yl)pyrazin-2-yl]-1-methyl-1,2,4-triazol-3-yl]-1-piperidyl]-2-hydroxy-2-methyl-propan-1-one] | 6260 | 14 | > 30000 | 420 | IC50 [7]: 37 nM |
| C[C@@H](Nc1cc(F)cc(F)c1)c1cc(C(=O)N(C)C)cc2c(=O)cc(N3CCOCC3)oc12 [AZD8186, 8-((1R)-1-(3,5-difluorophenylamino)ethyl)-N,N-dimethyl-2-morpholino-4-oxo-4H-chromene-6-carboxamide, reference compound] |  |  |  |  | tumour growth [8]: partially inhibited tumour growth |
| C[C@H](O)CC(=O)N1CCC(c2nc(-c3cnc(N)c(-c4nnc(C(C)(C)C)o4)n3)n(C)n2)CC1 [Example 5, (3S)-1-[4-[5-[5-amino-6-(5-tert-butyl-1,3,4-oxadiazol-2-yl)pyrazin-2-yl]-1-methyl-1,2,4-triazol-3-yl]-1-piperidyl]-3-hydroxy-butan-1-one] | 3310 | 12 | > 30000 |  |  |

The next lines start with results.

| IC50 [3] [nM] | IC50 [4] [nM] | IC50 [5] [nM] | IC50 [6] [nM] | SMILES | also measured |
| --- | --- | --- | --- | --- | --- |
|  |  |  | 85 | CCn1nc(C2CCN(C(=O)[C@@H](O)CO)CC2)nc1-c1cnc(N)c(-c2nnc(C(C)(C)C)o2)n1 [Example 10, (2S)-1-[4-[5-[5-amino-6-(5-tert-butyl-1,3,4-oxadiazol-2-yl)pyrazin-2-yl]-1-ethyl-1,2,4-triazol-3-yl]-1-piperidyl]-2,3-dihydroxy-propan-1-one] |  |
| 640 | < 10 |  |  | CCn1nc(C2CCN(C(=O)CC(=O)O)CC2)nc1-c1cnc(N)c(-c2nnc(C(C)(C)C)o2)n1 [Example 9, 3-[4-[5-[5-amino-6-(5-tert-butyl-1,3,4-oxadiazol-2-yl)pyrazin-2-yl]-1-ethyl-1,2,4-triazol-3-yl]-1-piperidyl]-3-oxo-propanoic acid] |  |
|  |  |  | 110 | CCn1nc(C2CCN(C(=O)[C@H](O)CO)CC2)nc1-c1cnc(N)c(-c2nnc(C(C)(C)C)o2)n1 [Example 11, (2R)-1-[4-[5-[5-amino-6-(5-tert-butyl-1,3,4-oxadiazol-2-yl)pyrazin-2-yl]-1-ethyl-1,2,4-triazol-3-yl]-1-piperidyl]-2,3-dihydroxy-propan-1-one] |  |
| 1520 | 12 | > 30000 | 590 | Cn1nc(C2CCN(C(=O)CC(=O)O)CC2)nc1-c1cnc(N)c(-c2nnc(C(C)(C)C)o2)n1 [Example 8, 3-[4-[5-[5-amino-6-(5-tert-butyl-1,3,4-oxadiazol-2-yl)pyrazin-2-yl]-1-methyl-1,2,4-triazol-3-yl]-1-piperidyl]-3-oxo-propanoic acid] | IC50 [7]: 24 nM |
